Values of other authors, collected in patent publication US20040248846A1, “Intranasal administration of triptans” (Nastech Pharmaceutical Company Inc., priority 2003, published 2004).
Read-outs that look alike come from different tables or passages of the source.

Columns and labels:
[1] = single 6 mg subcutaneous dose, 18 healthy males

mean Cmax (5 mg intranasal dose, 20 females): 5 ng/mL
mean Cmax (20 mg intranasal dose, 20 females): 16 ng/mL
mean Cmax (oral dosing with 25 mg): approximately 18 ng/ml
tmax (oral dosing with 25 mg): approximately 2 hours
mean Cmax [1]: 74 ± 15 ng/mL
median tmax [1]: 12 min
SMILES: CNS(=O)(=O)Cc1ccc2[nH]cc(CCN(C)C)c2c1 [sumatriptan]
efficacy (effective) (patients with migraine; 6 mg subcutaneous dose): ~85%
Onset of pain relief (patients with migraine; after a nasal dose): 30 min
Onset of pain relief (patients with migraine; after a subcutaneous dose): 10 to 34 min
